Literature values, collected in Sander's compilation of Henry's law constants (doi:10.1021/cr60306a003).

test: Henry solubility constant Hcp at 298.15 K (mol/(m3 Pa)); details: reference: Wilhelm et al. (1977); cited value

Row | SMILES | Henry solubility constant Hcp
1 | C=CC=C [1,3-butadiene] | 0.00014
2 | C=CCC [1-butene] | 0.00013
3 | C#CCC [1-butyne] | 0.00075
4 | CC(C)C [2-methylpropane] | 8e-06
5 | C=C(C)C [2-methylpropene] | 5.6e-05
6 | C#CC=C [3-buten-1-yne] | 0.00037
7 | CBr [bromomethane] | 0.0016
8 | [C-]#[O+] [carbon monoxide] | 9.4e-06
9 | O=C=S [carbon oxide sulfide] | 0.00021
10 | [O][Cl+][O-] [chlorine dioxide] | 0.01
11 | FC(F)Cl [chlorodifluoromethane] | 0.00034
12 | C=CCl [chloroethene] | 0.00045
13 | FCCl [chlorofluoromethane] | 0.0015
14 | FC(F)(Cl)Cl [dichlorodifluoromethane] | 2.1e-05
15 | CNC [dimethylamine] | 0.3
16 | FN(F)N(F)F [dinitrogen tetrafluoride] | 8.4e-06
17 | CCN [ethanamine] | 0.35
18 | FC(F)=C(F)C(F)(F)F [hexafluoropropene] | 2.9e-06
19 | CN [methanamine] | 0.35
20 | FN(F)F [nitrogen trifluoride] | 7.9e-06
21 | O=[O+][O-] [ozone] | 0.00013
22 | P [phosphorus trihydride] | 8.1e-05
23 | O=S=O [sulfur dioxide] | 0.014
24 | FC(F)=C(F)F [tetrafluoroethene] | 1.6e-05
25 | FC(F)(F)F [tetrafluoromethane] | 2.1e-06

The next lines start with the values.

Row | Henry solubility constant Hcp | SMILES
26 | 1.4e-05 | [Ar] [argon]
27 | 1.2e-05 | CCCC [butane]
28 | 0.00033 | O=C=O [carbon dioxide]
29 | 3.4e-06 | FC(F)(F)C(F)(F)Cl [chloropentafluoroethane]
30 | 9.3e-06 | FC(F)(F)Cl [chlorotrifluoromethane]
31 | 0.00011 | C1CC1 [cyclopropane]
32 | 5.9e-06 | CC(C)(C)C [dimethylpropane]
33 | 0.00024 | [N-]=[N+]=O [dinitrogen monoxide]
34 | 4.7e-05 | C=C [ethene]
35 | 0.00041 | C#C [ethyne]
36 | 0.00058 | CF [fluoromethane]
37 | 3.8e-06 | [He] [helium]
38 | 7.7e-06 | [HH] [hydrogen]
39 | 2.5e-05 | [Kr] [krypton]
40 | 4.4e-06 | [Ne] [neon]
41 | 1.3e-05 | O=O [oxygen]
42 | 7.3e-05 | C=CC [propene]
43 | 9.2e-05 | [Rn] [radon]
44 | 2.4e-06 | FS(F)(F)(F)(F)F [sulfur hexafluoride]
45 | 0.00013 | FC(F)F [trifluoromethane]
46 | 4.2e-05 | [Xe] [xenon]
